For data set [1], the system named is NQO1 gene expression in BEAS-2B cells (Homo sapiens). The data set is described as follows: BEAS-2B NQO1 assay (qPCR of NQO1 mRNA). Format: cell-based. The conditions noted are these: 24 h, concentrations of up to 10 μM. The source says:
The effect of peptides on Nrf2-dependent gene expression was investigated in BEAS-2B cells, where we determined the upregulation of the mRNA of NAD(P)H quinone dehydrogenase (NQO1) by qPCR. The expression of NQO1 is Nrf2-dependent and it is one of the two major quinone reductases, which play a crucial role in protecting cells from oxidative stress.[40] ^§§ In the context of this study we chose BEAS-2B cells as a representative model for epithelial cells. The presence of serum has been reported to affect BEAS-2B cell phenotype. Specifically, exposure of BEAS-2B to FBS has been associated with squamous differentiation, alteration in cytokine secretion and response to toxicants.[42–44] […] In order to improve the cellular uptake, we took of advantage of the 2C-PS moiety, which not only allows the easy synthesis of a variety of macrocycles of different ring sizes, but also permits the facile introduction of a diverse set of moieties, which could enhance cell permeability. We pursued a diverse set of strategies to make the Keap1 peptide more cell permeable, namely: masking of the acidic amino acids with methyl esters, introduction of polyarginine peptides, GWWG-polyarginine peptides or a long-chain fatty acid tag onto the staple, as well as peptide shortening and a combination of these. The rationale behind these strategies is explained herein, and details of their synthesis can be found in the ESI. ^†
Cellular Biology Experimental
(Thermo Fisher Scientific, USA).
calculated using QunatStudio 7 software.

Data set [2] concerns the target T1, interaction between the human Keap1 Kelch domain and an Nrf2-ETGE peptide (Homo sapiens, UniProt Q14145).
T1 construct: 1nM purified human Keap1 Kelch domain (A321-T609) fused with N-terminal 6x His-tag; made in house
In words: Keap1-Nrf2 TR-FRET (HTRF) assay. The data set is classed as binding. The source says: (§1) We based the design of our Nrf2-like cyclic peptides around the amino acid sequence of the ETGE motif (namely 12-mer ^73[…]^84L) and SAR studies reported in the literature.[9,10,12,14] The […] motif is known to adopt a beta-turn conformation upon binding to Keap1. Residues Q73-Q75 and L85 stabilise the bound conformation, L76-D77 and E79-G81 bind deep into the pocket with E79 and E82 forming electrostatic interactions with Keap1 and D77 and T80 stabilising the beta-turn via H-bonds with E78 not contributing to the binding. […] The ability of the cyclic peptides to bind to the Kelch domain of Keap1 was evaluated using surface plasma resonance (SPR), where the Kelch domain is immobilised onto a SPR sensor chip. Additionally, we assessed the ability of the peptides to inhibit the PPI between Nrf2 and the Kelch domain of Keap1 using a time-resolved FRET (TR-FRET) assay. Here, the IC50 for inhibition of the interaction between the human Keap1 Kelch domain and an Nrf2-ETGE peptide is measured.
(§2) Surface Plasmon Resonance (SPR)
(§3) Peptide affinities to the Kelch domain of Keap1 is determined in a direct binding assay using 8K surface plasmon resonance (SPR) biosensor (Cytiva) at 20°C. Immobilization of Keap1 Kelch domain on a CM5 sensor chip (Cytiva) is performed using standard amine coupling procedure. The surface is washed with 10mM NaOH, 1M NaCl before activated with EDC/NHS (Cytiva), followed by immobilization of human Keap1 Kelch domain (A321-T609) fused with N-terminal 6x His-tag7 (in 10 mM MES, pH=6.4).
(§4) Finally, the surface is deactivated by Ethanolamine. Immobilization levels are typically 5000-6000 RU.
(§5) The reference spot is treated as described, omitting the injection of Keap1. Compound concentration series are injected over the immobilized protein in increasing concentrations using single cycle kinetics (SCK) in running buffer (10 mM HEPES, 150 mM NaCl, 0.05% Tween20, 1 mM TCEP, pH 7.4). A 1:1 Langmuir interaction model is fitted to the experimental traces, enabling determination of kon, koff and […]
(§6) In the time-resolved Förster resonance energy transfer (TR-FRET) assay8 the IC50 of inhibitors which […]
(§7) are determined. The TR-FRET is measured between a Tb-labelled mAb (Anti—6-His, Tb cryptate Gold, CisBio 61H12TLB) that binds to Keap 1 Kelch domain and d2-labelled SA-biotin-peptide.
(§8) The assay was performed in 384-well white low-volume, medium binding plates (Greiner Bio One, Austria) in 20 mM HEPES pH 7.5, 150 mM NaCl, 2 mM GSH (Sigma-Aldrich, USA),1mM EDTA (Sigma-Aldrich, USA), and 0.01% Pluronic F127 (MilliporeSigma, USA), with a final reaction volume of 10 µL.
(§9) To determine the ability of synthesized peptide to inhibit PPI between the Keap1 Kelch domain and Nrf2, 1nM purified human Keap1 Kelch domain (A321-T609) fused with N-terminal 6x His-tag, 5 nM biotinylated Nrf2 peptide ([…], Genescript, USA), d2-labeled streptavidin (Revvity, USA), and […] anti-His monoclonal antibody tagged with terbium cryptate (Revvity, USA), were incubated in the presence of varying concentrations of investigated peptides for 3 h at room […]
(§10) 7 Li X, Zhang D, Hannink M, Beamer LJ. Crystallization and initial crystallographic analysis of the Kelch domain from human Keap1. Acta
(§11) 8 S. Lee, D. Ali Abed, L. J. Beamer, L. Hu, Development of a Homogeneous Time-Resolved Fluorescence Resonance Energy Transfer (TR-
Following the incubation, the PHERAstar FSX […] microplate reader was used to measure the acceptor and donor emissions at 665 nm and 620 nm, respectively. The acceptor/donor ratio was used to calculate relative energy transfer. Data was normalized by two-point normalization using neutral and inhibitor controls (neutral control: DMSO, inhibitor control: 0.1nM 2-[[4-[carboxymethyl-(4-methoxyphenyl)sulfonylamino]naphthale n-1-yl]-(4-methoxyphenyl)sulfonylamino]acetic acid; […]
parameter logistic fit and IC50 values were calculated using Genedata screener software (Genedata, […]

For data set [3], the target named is T2, human Keap1 Kelch domain (A321-T609) (Homo sapiens, UniProt Q14145).
T2 construct: human Keap1 Kelch domain (A321-T609) fused with N-terminal 6x His-tag; 6xHis (N); made in house
In words: Surface plasmon resonance (SPR) direct binding assay, immobilised Keap1 Kelch domain.
Excerpt: as §1, §2, §3, §4, §5, §6, §7, §8, §9, §10, §11

In another data set the test system is BEAS-2B cells. In words: CellTiter Glo assay. The conditions noted are these: P8-H tested up to 30 μM.
Setting [4] is: Table 1, geometric mean ± sd of at least 3 independent repeats unless stated, read-out: TR-FRET IC50.
The mark [5] stands for this setting: Table 1, geometric mean ± sd of at least 3 independent repeats unless stated, 20°C.
Setting [6] is: Table 1, single cycle kinetics, 1:1 Langmuir model.

Like-named read-outs stand apart in the source and are kept apart here. *1 amine or outer side, *2 acyl side, *3 side chain or, on linkers, in order; H or OH if unused. Where a SMILES comes first, the peptide text is derived from it. Bridges are numbered along the chain shown (N, C = ends). Roman numbers before positions name the chains, in order. [ ]: non-standard residue; d: D form. X3 = CCCCCCCCCCCCCCCCCC(=O)NCCCC[C@H](NC(=O)COCCOCCNC(=O)COCCOCCn1cc(COCCOCCNc2nc(CC[*:1])cc(CC[*:2])n2)nn1)C(=O)NCCOCCOCC(=O)NCCOCCOCC(N)=O; X2 = O=C(CCCCn1cc(COCCOCCNc2nc(CC[*:1])cc(CC[*:2])n2)nn1)[*:3]; CH2COCH2 = O=C(C[*:1])C[*:2]

T2 sequence (Q14145 321-609): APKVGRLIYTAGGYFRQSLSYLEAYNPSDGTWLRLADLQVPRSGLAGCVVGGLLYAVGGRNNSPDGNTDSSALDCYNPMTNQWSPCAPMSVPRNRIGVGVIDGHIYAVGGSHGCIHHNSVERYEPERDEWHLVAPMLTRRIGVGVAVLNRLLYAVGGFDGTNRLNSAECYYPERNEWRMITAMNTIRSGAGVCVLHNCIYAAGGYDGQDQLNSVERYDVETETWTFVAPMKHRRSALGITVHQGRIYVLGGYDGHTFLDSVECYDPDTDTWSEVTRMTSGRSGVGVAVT
T1 sequence (Q14145 321-609): as above
NQO1 gene expression in BEAS-2B cells (Homo sapiens), sequence (Q14145 whole entry): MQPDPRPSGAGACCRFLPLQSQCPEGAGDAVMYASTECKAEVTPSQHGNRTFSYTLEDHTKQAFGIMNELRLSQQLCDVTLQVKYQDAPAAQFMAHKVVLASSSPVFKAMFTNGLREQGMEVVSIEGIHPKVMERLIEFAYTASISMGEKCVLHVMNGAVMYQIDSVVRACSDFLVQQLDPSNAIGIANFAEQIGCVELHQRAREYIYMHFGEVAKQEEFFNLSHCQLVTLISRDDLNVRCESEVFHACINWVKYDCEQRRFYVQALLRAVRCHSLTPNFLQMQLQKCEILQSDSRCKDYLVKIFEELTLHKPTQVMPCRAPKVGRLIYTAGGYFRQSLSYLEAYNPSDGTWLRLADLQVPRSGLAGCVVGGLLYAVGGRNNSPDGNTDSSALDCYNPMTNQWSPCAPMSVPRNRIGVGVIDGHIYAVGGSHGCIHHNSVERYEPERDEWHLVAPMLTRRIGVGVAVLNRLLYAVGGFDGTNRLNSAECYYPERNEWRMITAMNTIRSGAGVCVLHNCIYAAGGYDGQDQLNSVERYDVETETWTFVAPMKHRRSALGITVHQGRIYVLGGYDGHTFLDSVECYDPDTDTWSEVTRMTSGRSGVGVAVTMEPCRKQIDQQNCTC

For the compound Ac-LQLDPETGEFL-NH2 [reference compound], the “induction of NQO1 mRNA (Nrf2-dependent gene expression)” value in data set [1] is reported as “did not lead to any induction”. Further, the IC50 in data set [2] (setting [4]) came out at 5.3 ± 1.2 nM. The compound further yielded a Kd in data set [3] (setting [5]) of 52 ± 1.4 nM. In data set [3] (setting [6]), the koff is 0.0079 s⁻¹ and the kon is 170000 M⁻¹ s⁻¹.
Turning to `CC(=O)N[C@H]1CSCCc2cc(nc(NCCOCCOCc3cn(CCCCC(=O)NCC(=O)N[C@@H](Cc4c[nH]c5ccccc45)C(=O)N[C@@H](Cc4c[nH]c5ccccc45)C(=O)NCC(=O)N[C@H](CCCNC(=N)N)C(=O)N[C@H](CCCNC(=N)N)C(=O)N[C@H](CCCNC(=N)N)C(N)=O)nn3)n2)CCSC[C@@H](C(=O)N[C@@H](CC(C)C)C(N)=O)NC(=O)[C@H](CCC(=O)O)NC(=O)CNC(=O)[C@H]([C@@H](C)O)NC(=O)[C@H](CCC(=O)O)NC(=O)[C@@H]2CCCN2C(=O)[C@H](CC(=O)O)NC1=O` [Peptide P8-G], the “induction of NQO1 mRNA (Nrf2-dependent gene expression)” value in data set [1] is given as “did not lead to any activity”.
On the same count and under the same terms, the entry for `CCCCCCCCCCCCCCCCCC(=O)NCCCC[C@H](NC(=O)COCCOCCNC(=O)COCCOCCn1cc(COCCOCCNc2nc3cc(n2)CCSC[C@@H](C(=O)N[C@@H](CC(C)C)C(N)=O)NC(=O)[C@H](CCC(=O)O)NC(=O)CNC(=O)[C@H]([C@@H](C)O)NC(=O)[C@H](CCC(=O)O)NC(=O)[C@@H]2CCCN2C(=O)[C@H](CC(=O)O)NC(=O)[C@H](CC(C)C)NC(=O)[C@H](CCC(N)=O)NC(=O)[C@H](CC(C)C)NC(=O)[C@@H](NC(C)=O)CSCC3)nn1)C(=O)NCCOCCOCC(=O)NCCOCCOCC(N)=O` [Peptide P3-H] (Ac-CLQLDPETGECL-NH2; linker 1-11 via X3) is “did not induce Nrf2-dependent gene expression”; for `CC(=O)N[C@H]1CSCCc2cc(nc(NCCOCCOCc3cn(CCCCC(=O)NCC(=O)N[C@@H](Cc4c[nH]c5ccccc45)C(=O)N[C@@H](Cc4c[nH]c5ccccc45)C(=O)NCC(=O)N[C@H](CCCNC(=N)N)C(=O)N[C@H](CCCNC(=N)N)C(=O)N[C@H](CCCNC(=N)N)C(N)=O)nn3)n2)CCSC[C@@H](C(=O)N[C@@H](CC(C)C)C(N)=O)NC(=O)[C@H](CCC(=O)O)NC(=O)CNC(=O)[C@H]([C@@H](C)O)NC(=O)[C@H](CCC(=O)O)NC(=O)[C@@H]2CCCN2C(=O)[C@H](CC(=O)O)NC(=O)[C@H](CC(C)C)NC(=O)[C@H](CCC(N)=O)NC(=O)[C@H](CC(C)C)NC1=O` [Peptide P3-G] (I: Ac-CLQLDPETGECL-NH2 / II: GWWG[dR][dR][dR]-NH2; linker I:1-I:11-II:N via X2) it is “no activity was detected”.
With `CC(=O)N[C@H]1CSCC(=O)CSC[C@@H](C(=O)N[C@@H](CC(C)C)C(N)=O)NC(=O)[C@H](CCC(=O)O)NC(=O)CNC(=O)[C@H]([C@@H](C)O)NC(=O)[C@H](CCC(=O)O)NC(=O)[C@@H]2CCCN2C(=O)[C@H](CC(=O)O)NC(=O)[C@H](CC(C)C)NC(=O)[C@H](CCC(N)=O)NC1=O` [Peptide P1-B] (Ac-CQLDPETGECL-NH2; linker 1-10 via CH2COCH2), in data set [2] (setting [4]), the IC50 was 4.4 ± 1.4 nM. This compound displayed a Kd in data set [3] (setting [5]) of 27 ± 1.3 nM. In data set [3] (setting [6]), this compound gave a koff of 0.0087 s⁻¹ and a kon of 410000 M⁻¹ s⁻¹.
On to `CC(=O)N[C@@H](CS)C(=O)N[C@@H](CC(=O)O)C(=O)N1CCC[C@H]1C(=O)N[C@@H](CCC(=O)O)C(=O)N[C@H](C(=O)NCC(=O)N[C@@H](CCC(=O)O)C(=O)N[C@@H](CS)C(=O)N[C@@H](CC(C)C)C(N)=O)[C@@H](C)O` [Peptide P8], for which the IC50 in data set [2] (Table 2, IC50, minimum of three repeats, read-out: TR-FRET) was 4.9 ± 1.2 nM. For the same compound, in data set [3] (Table 2), the koff is 0.0055 s⁻¹ and the kon stood at 95000 M⁻¹ s⁻¹. In data set [3] (Table 2, geometric mean ± sd of at least two independent repeats), this compound displayed a Kd of 56 ± 1.3 nM.
`CCCCCCCCCCCCCCCCCC(=O)NCCCC[C@H](NC(=O)COCCOCCn1cc(COCCOCCNc2nc3cc(n2)CCSC[C@@H](C(=O)N[C@@H](CC(C)C)C(N)=O)NC(=O)[C@H](CCC(=O)O)NC(=O)CNC(=O)[C@H]([C@@H](C)O)NC(=O)[C@H](CCC(=O)O)NC(=O)[C@@H]2CCCN2C(=O)[C@H](CC(=O)O)NC(=O)[C@@H](NC(C)=O)CSCC3)nn1)C(=O)NCCOCCOCC(=O)NCCOCCOCC(N)=O` [Peptide P8-H]: in the data set with BEAS-2B cells, the “cytotoxicity in CellTiter Glo assay” value was “no cytotoxicity”.
On the same count and under the same terms, the entry for `CC1(C)CC[C@]2(C(=O)O)CC[C@]3(C)[C@H](C(=O)C=C4[C@@]5(C)C=C(C#N)C(=O)C(C)(C)[C@@H]5CC[C@]43C)[C@@H]2C1` [Bardoxolone, reference compound] is “cytotoxic”.

The values above are taken from publication PMC10566475, “A cell-active cyclic peptide targeting the Nrf2/Keap1 protein–protein interaction” (Chemical Science, 2023).
